What was measured:
Type in all cases: cell-based
[1] = molecular target: T1, human prostanoid EP4 receptor (Homo sapiens, UniProt P35408); test: FLIPR Ca2+ signaling PG antagonist assay, EP4 stable cell line; settings: HEK-293 EBNA cells, human recombinant EP4 with chimeric Gqs; standard agonist PGE2
T1 construct: expressed in transfected cells
Description: (§1) The above compounds were tested for PG antagonist activity as follows using human recombinant prostanoid receptor (DP1, EP1-4, FP, IP and TP) stable cell lines: In order to measure the response of Gs and Gi coupled prostanoid receptors as a Ca^2+ signal, chimeric G protein cDNAs were used. Stable cell lines over-expressing human prostanoid DP1, EP1-4, FP, IP, and TP receptors were established as follows:
(§2) Briefly, human prostanoid DP1, EP2, and EP4 receptor cDNAs were co-transfected with chimeric Gqs cDNA containing a haemagglutanin (HA) epitope; human prostanoid EP3 receptors were co-transfected with chimeric Gqi-HA; human EP1, FP, IP, and TP receptor cDNAs were expressed with no exogenous G-proteins. Gqs and Gqi chimeric cDNAs (Molecular Devices, Sunnyvale, Calif., U.S.A.), as well as cDNAs of prostanoid receptors, were cloned into a pCEP4 vector with a hygromycin B selection marker. Transfection into HEK-293 EBNA (Epstein-Barr virus nuclear antigen) cells was achieved by the FuGENE 6 transfection Reagent (Roche Applied Science, Indianapolis, Ind., USA). Stable transfectants were selected according to hygromycin resistance. Because Gqs and Gqi contained an HA epitope, G-protein expression was detected by Western blotting analysis using anti-mouse HA monoclonal antibody and horseradish peroxidase (HRP)-conjugated secondary antibody, while functional expression of prostanoid receptors was detected by FLIPR screening (Matias et al., 2004). These stable cell lines were validated using previously published antagonists at 10 μM against serial dilutions of standard agonists by FLIPR functional assays for Ca^2+ Signaling (as described below).
(§3) Ca^2+ signaling studies were performed using a FLIPR TETRA system (Molecular Devices, Sunnyvale, Calif., USA) in the 384-format. This is a high-throughput instrument for cell-based assays to monitor Ca^2+ signaling associated with GPCRs and ion channels. Cells were seeded at a density of 5×10^4 cells/well in BioCoat poly-D-lysine coated, black wall, clear bottom 384-well plates (BD Biosciences, Franklin lakes, NJ, USA) and allowed to attach overnight in an incubator at 37° C. The cells were then washed twice with HBSS-HEPES buffer (Hanks' balanced salt solution without bicarbonate and phenol red, 20 mM HEPES, pH 7.4) using an ELx405 Select CW Microplate Washer (BioTek, Winooski, Vt., USA). After 60 min of dye-loading in the dark using the Ca^2+-sensitive dye Fluo-4AM (Invitrogen, Carlsbad, Calif., USA), at a final concentration of 2×10^−6M, the plates were washed 4 times with HBSS-HEPES buffer to remove excess dye and leaving 50 μl of buffer in each well. The plates were then placed in the FLIPR TETRA instrument and allowed to equilibrate at 37° C. Compounds were added in a 25 μl volume to each well to give final concentrations of 0.1 μM, 0.3 μM, 1 μM, 3 μM, 10 μM, and 30 μM; or 0.067 μM, 0.1 μM, 0.2 μM, 0.3 μM, 0.67 μM, and 1 μM for cells over-expressing TP receptors. After 4.5 minutes, a 7-point serial dilution of the standard agonist for the corresponding receptor, in a 25 μl volume was injected at the final concentrations from 10^−11M to 10^−5M in 10-fold serial dilution increments for cells expressing human recombinant DP1, EP1, EP2, EP3, EP4, FP, and IP receptors. The dose range for the standard agonist for human recombinant TP receptors was from 10^−12M to 10^−6M. HBSS-HEPES buffer was used as the negative control for the standard agonists. Cells were excited with LED (light emitting diode) excitation at 470-495 nm and emission was measured through an emission filter at 515-575 nm. Assay plates were read for 3.5 minutes using the FLIPR^TETRA. The peak increase in fluorescence intensity was recorded for each well. On each plate, negative controls, dose response of positive controls, and co-treatments of antagonist-agonist for each dose were in triplicates. Standard agonists were as follows: DP=BW 245C, EP1-EP4=PGE2, FP=17-phenyl-PGF2α, IP=Cicaprost, and TP=U-46619. […]

[2] = molecular target: T2, human prostanoid EP3 receptor (Homo sapiens, UniProt P43115); test: FLIPR Ca2+ signaling PG antagonist assay, EP3 stable cell line; settings: HEK-293 EBNA cells, human recombinant EP3 with chimeric Gqi; standard agonist PGE2
T2 construct: expressed in transfected cells
T2 sequence (P43115 1-390): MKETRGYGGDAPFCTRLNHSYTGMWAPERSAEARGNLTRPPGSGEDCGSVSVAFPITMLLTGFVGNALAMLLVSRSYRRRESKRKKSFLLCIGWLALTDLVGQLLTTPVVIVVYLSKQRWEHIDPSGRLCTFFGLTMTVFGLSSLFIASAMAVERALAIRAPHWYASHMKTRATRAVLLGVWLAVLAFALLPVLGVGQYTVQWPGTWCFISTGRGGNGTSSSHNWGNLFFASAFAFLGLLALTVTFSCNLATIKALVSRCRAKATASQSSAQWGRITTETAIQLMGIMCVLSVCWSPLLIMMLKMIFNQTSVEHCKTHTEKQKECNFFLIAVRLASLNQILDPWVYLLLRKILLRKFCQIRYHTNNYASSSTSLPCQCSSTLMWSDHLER
Description: as §1, §2, §3

[3] = molecular target: T3, human prostanoid TP receptor (Homo sapiens, UniProt P21731); test: FLIPR Ca2+ signaling PG antagonist assay, TP stable cell line; settings: HEK-293 EBNA cells, human recombinant TP, no exogenous G-protein; standard agonist U-46619
T3 construct: expressed in transfected cells
T3 sequence (P21731 1-343): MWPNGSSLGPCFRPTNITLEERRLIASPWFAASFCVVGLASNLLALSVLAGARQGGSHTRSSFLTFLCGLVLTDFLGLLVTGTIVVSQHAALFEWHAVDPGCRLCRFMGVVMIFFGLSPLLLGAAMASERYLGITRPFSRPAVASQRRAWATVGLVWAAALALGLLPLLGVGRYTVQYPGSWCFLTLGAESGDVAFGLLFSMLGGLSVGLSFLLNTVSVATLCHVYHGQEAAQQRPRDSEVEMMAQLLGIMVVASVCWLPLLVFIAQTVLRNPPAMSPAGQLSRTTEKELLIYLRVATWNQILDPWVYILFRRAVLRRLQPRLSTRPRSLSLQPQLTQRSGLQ
Summary of the method: (§4)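 HEK-293 EBNA stable lines; EP2 co-expressed with chimeric Gqs, EP1/IP/TP with no exogenous G protein. Fluo-4AM-loaded cells pretreated 4.5 min at 37 °C with compound (0.1–30 μM; TP 0.067–1 μM), then standard agonist (PGE2, cicaprost, U-46619) 10^−11–10^−5 M (TP 10^−12–10^−6 M); peak fluorescence read 3.5 min, nonlinear regression.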

[4] = molecular target: T4, human prostanoid IP receptor (Homo sapiens, UniProt P43119); test: FLIPR Ca2+ signaling PG antagonist assay, IP stable cell line; settings: HEK-293 EBNA cells, human recombinant IP, no exogenous G-protein; standard agonist Cicaprost
T4 construct: expressed in transfected cells
Summary of the method: as §4

[5] = molecular target: T5, human prostanoid EP2 receptor (Homo sapiens, UniProt P43116); test: FLIPR Ca2+ signaling PG antagonist assay, EP2 stable cell line; settings: HEK-293 EBNA cells, human recombinant EP2 with chimeric Gqs; standard agonist PGE2
T5 construct: expressed in transfected cells
Description: as §1, §2, §3

T4 sequence (P43119 whole entry): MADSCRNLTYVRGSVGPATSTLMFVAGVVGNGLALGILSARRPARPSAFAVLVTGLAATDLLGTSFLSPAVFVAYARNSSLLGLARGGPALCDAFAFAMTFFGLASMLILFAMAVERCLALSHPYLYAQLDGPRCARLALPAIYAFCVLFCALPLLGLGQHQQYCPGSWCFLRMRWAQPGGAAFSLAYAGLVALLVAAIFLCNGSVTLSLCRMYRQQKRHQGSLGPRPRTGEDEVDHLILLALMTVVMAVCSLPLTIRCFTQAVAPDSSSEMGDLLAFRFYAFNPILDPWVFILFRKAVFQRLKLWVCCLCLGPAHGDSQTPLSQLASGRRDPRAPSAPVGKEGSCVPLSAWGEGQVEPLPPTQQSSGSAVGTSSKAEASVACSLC
T5 sequence (P43116 whole entry): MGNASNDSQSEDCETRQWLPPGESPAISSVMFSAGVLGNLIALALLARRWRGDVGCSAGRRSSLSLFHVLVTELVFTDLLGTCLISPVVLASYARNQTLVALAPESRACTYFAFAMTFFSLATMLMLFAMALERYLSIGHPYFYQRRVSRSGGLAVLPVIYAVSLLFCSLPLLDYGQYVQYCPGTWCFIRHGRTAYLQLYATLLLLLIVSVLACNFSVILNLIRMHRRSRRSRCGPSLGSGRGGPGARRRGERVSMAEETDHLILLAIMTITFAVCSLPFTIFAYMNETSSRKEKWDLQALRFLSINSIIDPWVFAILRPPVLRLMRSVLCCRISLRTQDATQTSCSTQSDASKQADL
T1 sequence (P35408 whole entry): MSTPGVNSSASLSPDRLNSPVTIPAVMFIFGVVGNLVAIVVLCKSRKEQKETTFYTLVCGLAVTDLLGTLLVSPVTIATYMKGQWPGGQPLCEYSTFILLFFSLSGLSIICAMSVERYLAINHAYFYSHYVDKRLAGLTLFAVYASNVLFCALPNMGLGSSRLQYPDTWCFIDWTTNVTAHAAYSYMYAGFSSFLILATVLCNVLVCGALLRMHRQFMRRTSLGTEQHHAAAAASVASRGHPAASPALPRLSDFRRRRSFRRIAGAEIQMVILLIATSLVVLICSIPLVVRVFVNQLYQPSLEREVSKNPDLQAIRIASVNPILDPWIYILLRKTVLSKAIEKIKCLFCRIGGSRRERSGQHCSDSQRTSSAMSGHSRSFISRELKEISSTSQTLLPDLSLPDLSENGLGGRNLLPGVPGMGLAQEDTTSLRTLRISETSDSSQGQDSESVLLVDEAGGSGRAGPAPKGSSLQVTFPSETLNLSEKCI

Row | SMILES | Kb [1] [µM] | Kb [2] [µM] | Kb [3] [µM] | Kb [4] [µM] | Kb [5] [µM] | IP (Kb, PG antagonist activity) [4]
1 | CC(C)COc1ccc(Br)cc1Cn1ncc2ccc(C(=O)O)cc21 [Example 42, 1-(5-Bromo-2-Isobutoxy-Benzyl)-1H-Indazole-6-Carboxylic Acid] | 1.8 | 1.9 | 0.02 | 3.4 | ≥ 10 | 
2 | O=C(O)c1ccc2cnn(Cc3cc(Br)ccc3OCC3CCCC3)c2c1 [Example 44, 1-(5-Bromo-2-Cyclopentylmethoxy-Benzyl)-1H-Indazole-6-Carboxylic Acid] | 3.2 | 1.6 | 0.001 |  | ≥ 10 | PAg
3 | O=C(O)c1ccc2cn(Cc3cc(Br)ccc3OCC3CCCC3)nc2c1 [Example 45, 2-(5-Bromo-2-Cyclopentylmethoxy-Benzyl)-2H-Indazole-6-Carboxylic Acid] | 2 | ≥ 10 | 0.08 | 7 | ≥ 10 | 
4 | CCC(CC)COc1ccc(Cl)cc1Cn1ncc2ccc(C(=O)O)cc21 [Example 46, 1-[5-Chloro-2-(2-Ethyl-Butoxy)-Benzyl]-1H-Indazole-6-Carboxylic Acid] | ≥ 10 | ≥ 10 | 0.15 | ≥ 10 | ≥ 10 | 
5 | CC(C)COc1c(F)cc(Cl)cc1Cn1ncc2cc(C(=O)O)ccc21 [Example 47, 1-(5-Chloro-3-Fluoro-2-Isobutoxy-Benzyl)-1H-Indazole-5-Carboxylic Acid] | ≥ 10 | ≥ 10 | ≥ 10 | 4.8 | ≥ 10 | 
6 | CC(C)COc1ccc(S(C)(=O)=O)cc1Cn1ncc2cc(C(=O)O)ccc21 [Example 48, 1-(2-Isobutoxy-5-Methanesulfonyl-Benzyl)-1H-Indazole-5-Carboxylic Acid] | ≥ 10 | ≥ 10 | 0.5 | ≥ 10 | ≥ 10 | 
7 | CC(C)COc1cc(Cl)c(Cl)cc1Cn1ncc2cc(C(=O)O)ccc21 [Example 49, 1-(4,5-Dichloro-2-Isobutoxy-Benzyl)-1H-Indazole-5-Carboxylic Acid] | 0.05 | ≥ 10 | 0.006 | 3.2 | ≥ 10 | 
8 | Cc1ccc(OCC(C)C)c(Cn2ncc3cc(C(=O)O)ccc32)n1 [Example 50, 1-(3-Isobutoxy-6-Methyl-Pyridin-2-ylmethyl)-1H-Indazole-5-Carboxylic Acid] | 1.8 | 7.1 | 5.7 | ≥ 10 | ≥ 10 | 
9 | CCC(CC)Oc1ccc(Br)cc1Cn1ncc2cc(C(=O)O)ccc21 [Example 51, 1-[5-Bromo-2-(1-Ethyl-Propoxy)-Benzyl]-1H-Indazole-5-Carboxylic Acid] | 0.27 | 2.6 | 0.05 | 1.1 | ≥ 10 | 
10 | CC(C)(C)COc1ccc(Br)cc1Cn1ncc2cc(C(=O)O)ccc21 [Example 52, 1-[5-Bromo-2-(2,2-Dimethyl-Propoxy)-Benzyl]-1H-Indazole-5-Carboxylic Acid] | 0.01 | 2.1 | 0.002 | ≥ 10 | 3.8 | 
11 | CC(C)(O)COc1ccc(Br)cc1Cn1ncc2cc(C(=O)O)ccc21 [Example 53, 1-[5-Bromo-2-(2-Hydroxy-2-Methyl-Propoxy)-Benzyl]-1H-Indazole-5-Carboxylic Acid] | ≥ 10 | ≥ 10 | 1.2 | ≥ 10 | ≥ 10 | 
12 | CC(C)COc1ccc(O)cc1Cn1ncc2cc(C(=O)O)ccc21 [Example 54] | 2.7 | ≥ 10 | 0.64 | ≥ 10 | ≥ 10 | 
13 | CC(C)COc1ccc(OCC(F)F)cc1Cn1ncc2cc(C(=O)O)ccc21 [Example 55, 1-[5-(2,2-Difluoro-Ethoxy)-2-Isobutoxy-Benzyl]-1H-Indazole-5-Carboxylic Acid] | 2.1 | ≥ 10 | 0.3 | ≥ 10 | ≥ 10 | 
14 | CC(C)COc1ccc(OC(F)F)cc1Cn1ncc2cc(C(=O)O)ccc21 [Example 56, 1-(5-Difluoromethoxy-2-Isobutoxy-Benzyl)-1H-Indazole-5-Carboxylic Acid] | 0.15 | 8.8 | 0.005 | 4.1 | ≥ 10 | 
15 | CC(C)COc1ccc(Cl)cc1Cn1ncc2cc(C(=O)O)cnc21 [Example 57, 1-(5-Chloro-2-Isobutoxy-Benzyl)-1H-Pyrazolo[3,4-B]Pyridine-5-Carboxylic Acid] | 1.3 | ≥ 10 | 0.15 | ≥ 10 | ≥ 10 | 
16 | CC(C)COc1ccc(OC(F)(F)F)cc1Cn1ncc2cc(C(=O)O)cnc21 [Example 58, 1-(2-Isobutoxy-5-Trifluoromethoxy-Benzyl)-1H-Pyrazolo[3,4-B]Pyridine-5-Carboxylic Acid] | 0.38 | 9.8 | 0.07 | ≥ 10 | ≥ 10 | 
17 | CCC(CC)COc1ccc(Br)cc1Cn1nc(C)c2cc(C(=O)O)cnc21 [Example 59, 1-[5-Bromo-2-(2-Ethyl-Butoxy)-Benzyl]-3-Methyl-1H-Pyrazolo[3,4-B]Pyridine-5-Carboxylic Acid] | 0.19 | 5.4 | 0.32 | 0.54 | ≥ 10 | 

Source: US10988474B2, “Compounds acting at multiple prostaglandin receptors giving a general anti-inflammatory response” (ALLERGAN, INC., priority 2011, dated 2021)
